Each structure is given as a SMILES string. Calls of active or inactive are those of the source.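 Rule for the calls: active = compounds whose fitted half-maximal concentration for changing the GFP signal is at or below a set limit; inactive = the rest.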

Consider 31 molecules from PubChem BioAssay AID2740 (NMMLSC, 2010).

The experiment can be described thus: TOR pathway RPL19A-GFP modulators, concentration series – cell-based, S. cerevisiae, flow cytometry, MLPCN hits, dose response (AID 2740).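 Note: background is signal of the same compound in parental non-GFP s288c yeast.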 Conditions: S. cerevisiae RPL19A-GFP strain, flow cytometry fluorescence, 3 h; at 33 µM (top of the series). Background: In flow cytometry, cells or beads pass a laser one at a time.
In the case of `C#CCOc1c(Br)cc(/C=C2/C(=O)ON=C2C)cc1OC`, the GFP fluorescence, lower = active (kMESF (background-subtracted)) is 32.9 (inactive).

As for `COc1cc(C=C2C(=O)c3ccccc3C2=O)cc(OC)c1OC`, the GFP fluorescence, lower = active (kMESF (background-subtracted)) was 43.2 (inactive). Turning to `CC[C@]1(c2ccccc2OC)ON(c2ccccc2C(F)(F)F)C1=O`, the GFP fluorescence, lower = active (kMESF (background-subtracted)) was 33.7 (inactive). Turning to `CCCCc1ccc(/C=C2/C(=O)ON=C2c2ccccc2)s1`, the GFP fluorescence, lower = active (kMESF (background-subtracted)) is 44.1 (inactive). In the case of `O=C(Oc1cccc2cccnc12)c1ccc(Br)o1`, the GFP fluorescence, lower = active (kMESF (background-subtracted)) was 44.1 (inactive).

Consider `COc1ccc(C2(C)ON(c3ccccc3C(F)(F)F)C2=O)cc1` (stereo unspecified), for which the GFP fluorescence, lower = active (kMESF (background-subtracted)) was 34.3 (inactive).

Regarding `CC(C)Oc1ccc(C(=O)/C=C2/C(=O)Nc3ccccc32)cc1`, the GFP fluorescence, lower = active (kMESF (background-subtracted)) is 29 (inactive).

In the case of `Cc1cc(S(=O)(=O)ON2C(=O)c3ccccc3C2=O)ccc1F`, the GFP fluorescence, lower = active (kMESF (background-subtracted)) is 43.3 (inactive). Regarding `Cc1ccccc1N=Nc1ccc(O)c2ncccc12`, the GFP fluorescence, lower = active (kMESF (background-subtracted)) was 36.9 (inactive). Next, `Nc1ccc2ccc3cccc[n+]3c2c1`: 45.9 (inactive); `CCCS(=O)(=O)c1nnnn1-c1cccc(OC)c1`: 31.9 (inactive).

With `N/C(Cc1ccc(Cl)cc1Cl)=N\OC(=O)c1ccccc1`, the GFP fluorescence, lower = active (kMESF (background-subtracted)) was 28.6 (inactive).

With `COC(CNC(=O)c1ccc2c3c(onc13)-c1ccccc1C2=O)OC`, the GFP fluorescence, lower = active (kMESF (background-subtracted)) is 14.8 (inactive).

Consider `COc1ccccc1OCCCc1c(C)n[nH]c1C`, for which the GFP fluorescence, lower = active (kMESF (background-subtracted)) was 37.6 (inactive).

On to `Cc1ccc(NC(=O)c2ccc(Cl)c(N3C(=O)C=CC3=O)c2)cc1`, for which the GFP fluorescence, lower = active (kMESF (background-subtracted)) is 22.4 (inactive). The same measure for `O=C(O)c1ccccc1SC1CC(=O)N(c2ccc3c(c2)OCO3)C1=O` (stereo unspecified): 43.5 (inactive).

With `Cc1ccc(C(=O)O/N=C(\N)Cc2cccs2)c(Cl)c1`, the GFP fluorescence, lower = active (kMESF (background-subtracted)) was 38.5 (inactive).

Consider `O=C(OCn1ncc(Br)c(Br)c1=O)c1ccc(F)cc1`, for which the GFP fluorescence, lower = active (kMESF (background-subtracted)) is 37.3 (inactive).

Regarding `O=C(Nc1nnc(-c2ccc(F)cc2)o1)c1cc(Cl)sc1Cl`, the GFP fluorescence, lower = active (kMESF (background-subtracted)) was 51.4 (inactive). As to `Cc1cc(Br)c2c(c1)/C(=C/C(=O)c1cccs1)C(=O)N2`, the GFP fluorescence, lower = active (kMESF (background-subtracted)) is 40.3 (inactive). The same measure for `COc1ccccc1C(=O)NNC(=S)NC(=O)c1ccco1`: 35.5 (inactive); for `Oc1ccc(Br)cc1/C=N/Nc1ccccn1`: 40.5 (inactive); for `COc1cccc(/C=N/Nc2ccc([N+](=O)[O-])cn2)c1O`: 42.1 (inactive). Regarding `Fc1cccc(Nc2ncnc3c2cnn3-c2ccccc2)c1`, the GFP fluorescence, lower = active (kMESF (background-subtracted)) was 35.1 (inactive).

Regarding `Oc1ccc2ccccc2c1N=Nc1nccs1`, the GFP fluorescence, lower = active (kMESF (background-subtracted)) was 51 (inactive). Next, `Cc1ccc(/C=C/C(=O)c2ccc([N+](=O)[O-])o2)cc1`: 46.1 (inactive); `COc1ccc(CCNC2=C(Cl)C(=O)N(CCc3ccc(OC)c(OC)c3)C2=O)cc1OC`: 42.6 (inactive); `N#C/C(=C\c1ccccn1)c1nc2ccccc2s1`: 54.2 (inactive).

For `Cc1ccc(NC(=O)ON=C2CCCC2)cc1`, the GFP fluorescence, lower = active (kMESF (background-subtracted)) was 39.3 (inactive).

Take `COc1ccc(-c2cc3nc4n(c(=O)c3s2)CCC4)cc1`: the GFP fluorescence, lower = active (kMESF (background-subtracted)) is 21.6 (inactive).

Consider `Cc1ccc(N2C(=O)C(Cl)=C(Nc3c(C)n(C)n(-c4ccccc4)c3=O)C2=O)cc1`, for which the GFP fluorescence, lower = active (kMESF (background-subtracted)) is 39 (inactive).
